Measured values as given in patent US8669257B2, “Phenazine derivatives and uses thereof as potassium channel modulators” (The Johns Hopkins University, priority 2007, dated 2014).
“Also recorded” adds a separate entry of the source.

Experiments:
[1] = tested on: NF-κB luciferase reporter; test: NF-κB luciferase reporter assay in Jurkat T-cells; type: cell-based, human; conditions: FIG. 1C
[2] = tested on: calcineurin-NFATc2 interaction; test: GST-NFATc2 pull-down of calcineurin; type: binding
[3] = tested on: calcium influx in Jurkat T-cells; test: Calcium imaging assay: store-depletion induced calcium influx in Jurkat T-cells; type: cell-based, human; conditions: thapsigargin then 2 mM Ca2+; clofazimine preincubated 5 min
Description: (§1) JurkaT-cells were attached to L-lysine-coated glass dishes (MatTek). Cells were loaded with fura-2-AM (Invitrogen_F-1201) for 45 min before they were washed sequentially with growth medium and Ca^2+-free HBSS. Fluorescence excitation wavelengths were set at 350 and 380 nm, respectively, on a Zeiss Axiovert 200M microscope while emission wavelength was set at 510 nm. Changes in intracellular calcium concentrations were determined by fluorescence intensity ratio ([…]/F380).

[4] = tested on: calcium oscillation in Jurkat T-cells; test: Calcium oscillation in Jurkat T-cells (10 nM TG); type: cell-based, human; conditions: for cells with elongated calcium oscillation period: 10 nM TG, Jurkat T-cells
Description: as §1

[5] = biological target: calcium-activated IKCa1 potassium channel (Homo sapiens, UniProt O15554); test: Activity of IKCa1 channel (data not shown); type: cell-based; conditions: up to 10 μM
TRPM4 channel = TRPM4 channel (Homo sapiens, UniProt Q8TD43); test: Activity of TRPM4 channel (data not shown); type: cell-based; conditions: up to 10 μM
[6] = tested on: mouse skin or heart transplant; test: Mouse skin or heart transplant models (initial experiments); type: in vivo
[7] = tested on: graft versus host disease; conditions: open label study; cited from earlier work

Sequence of TRPM4 channel (Q8TD43 whole entry): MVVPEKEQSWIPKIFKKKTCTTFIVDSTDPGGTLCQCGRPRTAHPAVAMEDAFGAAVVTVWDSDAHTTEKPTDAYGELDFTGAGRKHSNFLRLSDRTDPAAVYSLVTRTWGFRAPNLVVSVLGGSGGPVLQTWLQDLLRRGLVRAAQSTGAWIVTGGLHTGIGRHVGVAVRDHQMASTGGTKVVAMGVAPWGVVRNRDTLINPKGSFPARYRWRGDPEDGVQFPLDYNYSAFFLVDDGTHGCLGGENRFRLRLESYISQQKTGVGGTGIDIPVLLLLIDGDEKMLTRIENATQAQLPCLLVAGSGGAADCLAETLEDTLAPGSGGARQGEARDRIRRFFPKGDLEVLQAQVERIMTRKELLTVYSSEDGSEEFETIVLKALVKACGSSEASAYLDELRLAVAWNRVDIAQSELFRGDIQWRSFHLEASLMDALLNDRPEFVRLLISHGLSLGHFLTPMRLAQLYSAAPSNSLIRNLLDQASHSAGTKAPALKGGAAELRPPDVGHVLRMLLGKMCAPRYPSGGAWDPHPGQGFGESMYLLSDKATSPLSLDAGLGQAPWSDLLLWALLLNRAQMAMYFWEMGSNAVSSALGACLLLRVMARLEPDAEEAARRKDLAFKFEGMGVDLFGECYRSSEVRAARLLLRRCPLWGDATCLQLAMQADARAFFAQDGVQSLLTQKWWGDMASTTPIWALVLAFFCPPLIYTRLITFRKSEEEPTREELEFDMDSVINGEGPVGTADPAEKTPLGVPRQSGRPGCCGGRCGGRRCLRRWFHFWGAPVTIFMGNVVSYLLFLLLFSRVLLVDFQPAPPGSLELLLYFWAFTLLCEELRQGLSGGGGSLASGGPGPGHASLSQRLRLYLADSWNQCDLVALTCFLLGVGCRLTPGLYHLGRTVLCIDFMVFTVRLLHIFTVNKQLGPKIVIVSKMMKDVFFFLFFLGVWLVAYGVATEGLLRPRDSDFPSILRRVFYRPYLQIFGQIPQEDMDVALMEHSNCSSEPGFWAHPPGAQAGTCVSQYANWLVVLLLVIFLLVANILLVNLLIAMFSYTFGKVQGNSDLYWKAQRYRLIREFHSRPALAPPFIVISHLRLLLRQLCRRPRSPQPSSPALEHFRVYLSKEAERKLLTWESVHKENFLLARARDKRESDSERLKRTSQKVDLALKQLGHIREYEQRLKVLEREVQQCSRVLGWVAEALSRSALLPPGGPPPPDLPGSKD
Sequence of calcium-activated IKCa1 potassium channel (O15554 whole entry): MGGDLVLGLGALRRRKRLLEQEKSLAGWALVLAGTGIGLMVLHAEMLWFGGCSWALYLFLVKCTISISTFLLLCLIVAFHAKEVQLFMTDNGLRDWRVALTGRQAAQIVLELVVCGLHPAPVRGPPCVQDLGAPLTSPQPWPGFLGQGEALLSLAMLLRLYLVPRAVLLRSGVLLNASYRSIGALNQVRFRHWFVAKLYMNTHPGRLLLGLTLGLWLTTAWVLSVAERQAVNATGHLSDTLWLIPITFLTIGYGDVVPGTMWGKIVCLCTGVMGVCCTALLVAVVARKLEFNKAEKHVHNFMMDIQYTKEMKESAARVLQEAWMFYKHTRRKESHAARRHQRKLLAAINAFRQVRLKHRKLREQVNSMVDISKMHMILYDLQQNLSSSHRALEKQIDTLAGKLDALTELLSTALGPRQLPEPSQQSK

## CC(C)/N=c1\cc2n(-c3ccc(Cl)cc3)c3ccccc3nc-2cc1Nc1ccc(Cl)cc1 [clofazimine, Clofazimine]
[1]
  NF-κB luciferase reporter less sensitive than IL-2 promoter-driven reporter: about 40 fold
[1]; Homo sapiens, Jurkat, PMA/ionomycin, n=6
  IC50: 2430 ± 1250 nM
[2]
  effect on binding of GST-NFATc2 to calcineurin: Nor did it affect the binding; also recorded: does not interfere with calcineurin-NFATc2 interaction
[3]
  effect on calcium entry: inhibited by clofazimine in a heterogeneous fashion; also recorded: only about a quarter of cells are responsive
[4]
  cells with elongated calcium oscillation period: Over 80%
[4]; listed as Clofazimine
  cells with elongated calcium oscillation period: more than 80%
[4]; low concentration of thapsigargin
  effect on calcium oscillation pattern: decreased the amplitude and increased the period
[5]
  effect on IKCa1 channel activity: remained unaffected
TRPM4 channel
  effect on TRPM4 channel activity: remained unaffected
[6]
  beneficial effects in mouse skin or heart transplant models: failed to show any beneficial effects
[7]
  patients able to decrease the amount of other medication: ~25%
